Data reported in US8278312B2, “Imidazo 1,2-a pyrimidine derivatives for the treatment of diseases such as diabetes” (Merck Patent Gesellschaft mit Beschränkter Haftung, priority 2007, dated 2012).

Key:
[1] = biological target: T1, SGLT1 (Homo sapiens, UniProt P13866); test: 14C-AMG uptake in BHK cells transfected with SGLT1 (96-well cell-based assay); conditions: 50 μM AMG, 37° C., 90 min
T1 construct: expressed in transfected cells
T1 sequence (P13866 1-664): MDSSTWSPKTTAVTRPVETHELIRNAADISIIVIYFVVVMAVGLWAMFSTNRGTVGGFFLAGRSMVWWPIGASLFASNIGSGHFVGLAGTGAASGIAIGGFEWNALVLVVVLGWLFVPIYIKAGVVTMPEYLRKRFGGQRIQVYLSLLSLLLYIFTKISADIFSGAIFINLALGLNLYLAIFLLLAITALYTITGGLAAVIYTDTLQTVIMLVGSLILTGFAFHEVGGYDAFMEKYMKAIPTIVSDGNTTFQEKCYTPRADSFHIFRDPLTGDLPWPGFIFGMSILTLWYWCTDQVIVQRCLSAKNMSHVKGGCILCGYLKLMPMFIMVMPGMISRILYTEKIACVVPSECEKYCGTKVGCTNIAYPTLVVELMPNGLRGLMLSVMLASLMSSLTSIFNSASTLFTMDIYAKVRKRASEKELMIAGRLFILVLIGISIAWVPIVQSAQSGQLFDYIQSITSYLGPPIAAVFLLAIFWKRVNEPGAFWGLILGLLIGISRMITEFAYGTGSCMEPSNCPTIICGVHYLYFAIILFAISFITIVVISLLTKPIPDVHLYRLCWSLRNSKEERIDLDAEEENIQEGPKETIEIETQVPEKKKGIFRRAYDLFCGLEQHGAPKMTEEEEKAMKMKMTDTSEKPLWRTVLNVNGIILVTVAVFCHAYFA
Source text: (§1) The compounds can be tested for their SGLT inhibition properties by means of BHK cells expressing SGLT1 and SGLT2. The production of the cells and the testing can be carried out as described below.
To construct the SGLT1 expression vector (KL225), the SLC5A1 gene (homologous to NM_000343) was amplified from a cDNA library using standard PCR technology and cloned over NheI/XhoI sites into the pcDNA3.1 expression vector (Invitrogen) containing neomycin as a selection marker. In this vector, transcription uses the enhancer/promoter of human cytomegalovirus.
(§2) The final vector KL225 together with an additional vector containing a dihydrofolate reductase gene as a selection marker was introduced into cells. Transfection into BHK21 cells (ATCC CCL-10), cultivated in DMEM medium (GIBCO/BRL), supplemented with 10% foetal calf serum (FCS) and 20 mM glutamine, was carried out using calcium phosphate transfections according to Graham, F. L. and van der Ebb, A. J. (1973), Virology 52: 456 with 5-20 μg of uncut plasmids for 10^7 cells. Stable transfectants were selected in medium containing 1 mg/ml of G418 (GIBCO/BRL) and 20-5000 nM methotrexate as final concentration, where only cells which expressed the neomycin gene and overexpressed the dhfr gene were able to grow. After growth for 2-3 weeks, the cells were cloned (0.5 cells/well) and the clones were investigated for SGLT expression in radioactivity uptake tests. […]
(§3) A 96-well cell-based assay was developed and adapted to HTS requirements:
(§4) BHK cells (transfected with SGLT1 or SGLT2) were seeded into 96-well microtitre plates (Cultureplates, Perkin Elmer). After at least 24 h, medium was removed, and the cell layer was washed with assay buffer (140 mM NaCl, 2 mM KCl, 1 mM CaCl2, 1 mM MgCl2, 10 mM HEPES, 5 mM Tris, adjusted to pH 7.4 using 1 M KOH). After addition of 40 μl of assay buffer, 50 μl of AMG (50 μM for SGLT1 and 2 mM for SGLT2) in the presence or absence of compounds, the cells were incubated in a total volume of 100 μl at 37° C. for 90 min. Supernatant was removed by suction and discarded. Cells were washed and lysed by addition of 50 μl of water. After 10 min at room temperature, 200 μl of Micrsoscint 40 (Perkin Elmer) were added. The radioactivity was counted in a Topcount microplate scintillation counter (Perkin Elmer). The non-specific uptake was determined in sodium-free assay buffer (266 mM sucrose, 2 mM KCl, 1 mM CaCl2, 1 mM MgCl2, 10 mM HEPES, 5 mM Tris, adjusted to pH 7.4 using 1 M KOH).

[2] = biological target: T2, SGLT2 (Homo sapiens, UniProt P31639); test: 14C-AMG uptake in BHK cells transfected with SGLT2 (96-well cell-based assay); conditions: 2 mM AMG, 37° C., 90 min
T2 construct: expressed in transfected cells
T2 sequence (P31639 1-672): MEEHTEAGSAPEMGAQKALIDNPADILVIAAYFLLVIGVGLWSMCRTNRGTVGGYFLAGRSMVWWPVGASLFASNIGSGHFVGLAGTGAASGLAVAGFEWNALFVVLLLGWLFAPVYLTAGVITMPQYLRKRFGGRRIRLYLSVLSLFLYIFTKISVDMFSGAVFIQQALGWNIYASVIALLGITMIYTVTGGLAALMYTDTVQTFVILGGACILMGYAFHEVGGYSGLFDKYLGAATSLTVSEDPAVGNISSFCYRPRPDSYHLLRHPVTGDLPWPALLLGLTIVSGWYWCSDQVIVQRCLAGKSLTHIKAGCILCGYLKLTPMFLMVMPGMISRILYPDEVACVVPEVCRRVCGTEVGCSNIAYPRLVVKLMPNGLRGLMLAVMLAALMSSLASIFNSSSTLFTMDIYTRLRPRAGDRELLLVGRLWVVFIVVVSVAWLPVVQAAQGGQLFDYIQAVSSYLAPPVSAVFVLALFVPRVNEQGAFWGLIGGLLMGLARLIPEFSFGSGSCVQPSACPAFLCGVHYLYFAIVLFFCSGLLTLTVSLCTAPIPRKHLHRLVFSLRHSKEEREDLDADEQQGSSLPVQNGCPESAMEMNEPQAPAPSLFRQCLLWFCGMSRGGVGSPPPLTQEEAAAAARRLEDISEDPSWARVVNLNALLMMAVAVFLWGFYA
Source text: as §1
To construct the SGLT2 expression vector (KL224), the SLC5A2 gene (homologous to NM_003041) was amplified from a cDNA library using standard PCR technology and cloned over NheI/XhoI sites into PCI-neo expression vector (Promega) containing neomycin as a selection marker. In this vector, transcription uses the enhancer/promoter of human cytomegalovirus and the SV40 polyadenylation signal.
as §2, with “KL224” for “KL225”
as §3, §4

Row | Compound | IC50 [1] | IC50 [2]
1 | Cc1cccc(C)c1Nc1c(-c2ccccc2OCC(N)=O)nc2ncccn12 [Compound A1, 2-{2-[3-(2,6-Dimethylphenylamino)-imidazo[1,2-a]pyrimidin-2-yl]phenoxy}-acetamide] | > 10000 nM | 1000 to 10000 nM
2 | Cc1cc(C)n2c(Nc3c(C)cccc3C)c(-c3ccccc3OCC(N)=O)nc2n1 [Compound A2] | > 10000 nM | > 10000 nM
3 | CNc1nnc(-c2cc(OC)cc(OC)c2-c2nc3ncccn3c2Nc2c(Cl)cccc2Cl)o1 [Compound A3, (2,6-dichlorophenyl)-{2-[2,4-dimethoxy-6-(5-methylamino-1,3,4-oxadiazol-2-yl)phenyl]imidazo[1,2-a]pyrimidin-3-yl}amine] | 10 to 1000 nM | 10 to 1000 nM
4 | CNc1nnc(-c2cc(OC)cc(OC)c2-c2nc3ncccn3c2Nc2c(Cl)cc(F)cc2Cl)o1 [Compound A4, (2,6-Dichloro-4-fluorophenyl)-{2-[2,4-dimethoxy-6-(5-methylamino-1,3,4-oxadiazol-2-yl)phenyl]imidazo[1,2-a]-pyrimidin-3-yl}amine] | 10 to 1000 nM | 10 to 1000 nM
5 | CNc1nnc(-c2cc(OC)cc(OC)c2-c2nc3ncccn3c2Nc2c(C)cccc2C)o1 [Compound A11, {2-[2,4-Dimethoxy-6-(5-methylamino-1,3,4-oxadiazol-2-yl)phenyl]imidazo-[1,2-a]pyrimidin-3-yl}-(2,6-dimethyl-phenyl)amine] | 1000 to 10000 nM | 10 to 1000 nM
6 | CNc1nnc(-c2ccccc2-c2nc3ncccn3c2Nc2c(Cl)cc(F)cc2Cl)o1 [Compound A13, (2,6-Dichloro-4-fluorophenyl)-{2-[2-(5-methylamino-1,3,4-oxadiazol-2-yl)-phenyl]imidazo[1,2-a]pyrimidin-3-yl}-amine] | 1000 to 10000 nM | 10 to 1000 nM
7 | CCNc1nnc(-c2ccccc2-c2nc3ncccn3c2Nc2c(Cl)cccc2Cl)o1 [Compound A15, (2,6-Dichlorophenyl)-{2-[2-(5-ethylamino-1,3,4-oxadiazol-2-yl)phenyl]imidazo-[1,2-a]pyrimidin-3-yl}amine] | 1000 to 10000 nM | 10 to 1000 nM
8 | CNc1nnc(-c2cc(Cl)cc(Cl)c2-c2nc3ncccn3c2Nc2c(C)cccc2C)o1 [Compound A16, {2-[2,4-Dichloro-6-(5-methylamino-1,3,4-oxadiazol-2-yl)phenyl]imidazo[1,2-a]-pyrimidin-3-yl}-(2,6-dimethylphenyl)amine] | 1000 to 10000 nM | 10 to 1000 nM
9 | CNc1nnc(-c2cccc(Cl)c2-c2nc3ncccn3c2Nc2c(C)cccc2C)o1 [Compound A19, {2-[2-Chloro-6-(5-methylamino-1,3,4-oxadiazol-2-yl)phenyl]imidazo[1,2-a]-pyrimidin-3-yl}-(2,6-dimethylphenyl)amine] | 1000 to 10000 nM | 10 to 1000 nM
10 | COC(=O)c1cccc(Cl)c1-c1nc2ncccn2c1Nc1c(C)cccc1C [Compound A20, Methyl 3-chloro-2-[3-(2,6-dimethyl-phenylamino)imidazo[1,2-a]pyrimidin-2-yl)benzoate] | > 10000 nM | 10 to 1000 nM

Other lines, results leading:

Row | IC50 [1] | IC50 [2] | Compound
11 | 1000 to 10000 nM | 10 to 1000 nM | CCNc1nnc(-c2cc(OC)cc(OC)c2-c2nc3ncccn3c2Nc2c(Cl)cccc2Cl)o1 [Compound A5, (2,6-Dichlorophenyl)-{2-[2-(5-ethylamino-1,3,4-oxadiazol-2-yl)-4,6-dimethoxy-phenyl]imidazo[1,2-a]pyrimidin-3-yl}-amine]
12 | > 10000 nM | 1000 to 10000 nM | COc1cc(OC)c(-c2nc3ncccn3c2Nc2c(Cl)cccc2Cl)c(-c2n[nH]c(=O)o2)c1 [Compound A6, 5-{2-[3-(2,6-dichlorophenylamino)imidazo[1,2-a]-pyrimidin-2-yl]-3,5-dimethoxyphenyl}-3H-1,3,4-oxadiazol-2-one]
13 | 1000 to 10000 nM | 10 to 1000 nM | CCc1cccc(OCC(N)=O)c1-c1nc2ncccn2c1Nc1c(Cl)cccc1Cl [Compound A7]
14 | 1000 to 10000 nM | 1000 to 10000 nM | CCc1cccc(OCC(N)=O)c1-c1nc2ncccn2c1Nc1c(C)cccc1C [Compound A8, 2-{2-[3-(2,6-dimethylphenylamino)imidazo[1,2-a]-pyrimidin-2-yl]-3-ethylphenoxy}acetamide]
15 | > 10000 nM | 10 to 1000 nM | CCc1cc(OC)cc(OCC(N)=O)c1-c1nc2ncccn2c1Nc1c(C)cccc1C [Compound A9]
16 | > 10000 nM | 10 to 1000 nM | COc1cc(C)c(-c2nc3ncccn3c2Nc2c(C)cccc2C)c(OCC(N)=O)c1 [Compound A10, 2-{2-[3-(2,6-Dimethylphenylamino)-imidazo[1,2-a]pyrimidin-2-yl]-5-methoxy-3-methylphenoxy}acetamide]
17 | > 10000 nM | 10 to 1000 nM | CCc1cc(OC)cc(OCC(N)=O)c1-c1nc2ncccn2c1Nc1c(Cl)cccc1Cl [Compound A12, 2-{2-[3-(2,6-Dichlorophenylamino)-imidazo[1,2-a]pyrimidin-2-yl]-3-ethyl-5-methoxyphenoxy}acetamide]
18 | > 10000 nM | 1000 to 10000 nM | COc1cc(C(N)=O)c(-c2nc3ncccn3c2Nc2c(Cl)cccc2Cl)c(OC)c1OC [Compound A17, 2-[3-(2,6-dichlorophenylamino)imidazo[1,2-a]pyrimidin-2-yl]-3,5,4-trimethoxybenzamide]
19 | > 10000 nM | 1000 to 10000 nM | COc1cc(OC)c(-c2nc3ncccn3c2Nc2c(Cl)cccc2Cl)c(C(=O)NN)c1 [Compound A18, 2-[3-(2,6-dichlorophenylamino)imidazo[1,2-a]pyrimidin-2-yl]-3,5-dimethoxybenzohydrazide]
